Holding throughout (assay type): in vivo, rat
One assay relates to PGE2. In words: IT SP-evoked spinal PGE2 release (intrathecal dialysis, ELISA). The source says: It was previously shown that intrathecal injection of SP and NMDA, but not vehicle, evokes PGE2 release assessed by spinal dialysis. Hua et al., Neuroscience 89: 525-534, 1999b.; Svensson et al., Neuroreport 14: 1153-1157, 2003a. It has been reported that PLA2 which generates free arachidonic acid necessary for eicosanoid synthesis, requires phosphorylation to become fully activated and that this phosphorylation can be mediated by p38 MAP kinase. Borsch-Haubold et al., Eur J Biochem 245: 751-759, 1997. The effect of spinal p38α/β inhibition was assessed on IT S P-evoked PGE2 release by injecting SB203580 15 min prior to IT SP. Resting release of PGE2 was determined after a washout period of 30 min. In the absence of pretreatment, baseline dialysate concentrations were determined to be 243±13 femtomol/100 μl perfusate (N=20). If SP (30 nmol) produced a 6-8 fold increase in PGE2 level in intrathecal CSF (FIG. 8A). […] If injection of vehicle prior to IT SP ad no effect on IT SP-evoked PGE2 release.
(A) Bar graph showing PGE2 concentration (fmol/100 μl) measured in cerebrospinal fluid collected by in vivo spinal dialysis of conscious rats before and after IT injection of substance P(SP, 30 nmol) and SB302580 (30 μg). Spinal dialysate is removed and assayed for PGE2 by ELISA at baseline (B, average of two 15 min fractions collected prior to IT injection of SP) and F1: 0-15 minutes, F2: 15-30 minutes and F3: 30-45 minutes and 45-60 minutes after SP injection. Rats received IT SP or IT SB203580 (α/βp38 inhibitor) 15 minutes prior to IT SP. (B) PGE2 release is presented as area under curve (AUC) calculated 60 minutes after IT injection of SP with or without pretreatment with p38 inhibitors. […] Each bar represents the average and SEM for 4-8 rats per group and (*) represents P<[…] versus baseline.
Intrathecal Dialysis & PGE2 assay. Dialysis experiments were conducted in unanethetized rats 4-5 days after the implant. […] The concentration of PGE2 in spinal dialysate was measured by ELISA using a commercially available kit (Assay Designs 90001, Assay Designs, Ann Arbor, Mich.). […]

For assay [1], the system named is rats, formalin-injected hind paw. In words: Formalin-induced flinching (paw formalin test). The following applies: IT injection 3-30 μg 10 minutes prior to formalin; 30 μg: P<0.05 versus vehicle. How it is done:
In recent work it was shown that inhibition of spinal p38 MAP kinase attenuated formalin-induced flinching. Svensson et al., J Neurochem 86: 1534-1544, 2003b. To examine the contribution of p38α and p38β in this experimental model of hyperalgesia, animals were injected with p38α, p38β AS or MS IT for five days. These animals were then examined on the formalin test. Unilateral intraplantar formalin solution (2.5%) caused a biphasic flinching pattern where the first 9 minutes are referred to as phase I and the following 50 minutes (min 10-60) as phase II. Yaksh et al., J Neurosci 21: 5847-5853, 2001a. The phase II flinching is considered to represent afferent input initiated spinal facilitation. Dickenson and Sullivan, Neurosci Lett 83: 207-211, 1987; Puig and Sorkin, Pain 64: 345-355, 1996. […] To further confirm the role of p38 to injury-induced pain behavior, a pharmacological inhibitor was also studied: SB203580, a p38α/β non-selective inhibitor.
To quantify formalin induced flinching, an automated sensing system was employed. Yaksh et al., J Appl Physiol 90: 2386-2402, 2001b. Briefly, a soft metal band was placed on the hind paw of the animal being tested. Animals were allowed to acclimate in individual Plexiglas chambers for 30 min before being moved to a test chamber. Just before the animals were placed into the test chamber, they were briefly restrained in a cloth towel, and 2.5% formalin (50 μl) was injected into the dorsal side of the banded paw. Nociceptive behavior was quantified by automatically counting the incidences of spontaneous flinching or shaking of the injected paw. The flinches were counted for 1-min periods for 60 minutes and the flinch data are expressed as number of flinches per min and total flinches observed during phase I (0-9 min) and phase II (10-60 min).

Assay [2] deals with phosphorylated p38 (P-p38). As to the kind of experiment: IT substance P-evoked spinal p38 phosphorylation (Western blot). The following applies: IT SP 30 nmol, at 30 min, N=6, P<0.05. How it is done:
(§1) Yaksh et al., Nature 286: 155-157, 1980; Yaksh, Trends Pharmacol Sci 20: 329-337, 1999. […] Malmberg and Yaksh, Science 257: 1276-1279, 1992; Svensson et al., J Neurochem 86: 1534-1544, 2003. […] To investigate the contribution of p38α and p38β to SP-evoked hyperalgesia and p38 phosphorylation, spinal delivery of p38α and p38β AS and MS was carried out. Thermal withdrawal latencies was assessed after IT injection of SP and lumbar spinal cords collected immediately to compare the degree of spinal p38 phosphorylation at the hypothesized time of peak phosphorylation. IT injection of SP into the MS group produced an expected reduction of thermal withdrawal latency in comparison with IT saline injection into to vehicle treated animals (FIG. 7C). […] In contrast, IT SP-induced thermal hyperalgesia was attenuated in rats which had received p38β AS (FIG. 7E). […] Stripping and reprobing the western blot membranes confirmed that p38α protein expression was knocked down in p38α AS treated group (FIG. 7D) as well as p38β in the p38β AS group (FIG. 7F).
(A) Graph displaying paw withdrawal latency (PWL) plotted versus time. […] (B) Representative western blots showing levels of P-p38, total p38 and β-actin in lumbar spinal cord at different time points after IT injection of SP (30 nmol). IT-SP induced p38 phosphorylation peaks 30 minutes after SP injection. (C, E) Graph showing PWL assessed 15 and […] after bolus injection of IT saline or IT SP injection in rats treated with IT ACSF, MS (30 μg), p38α AS (30 fig) or p38β AS (20 μg) daily for five days. […] IT injection of MS or ACSF had no effect on IT SP-evoked thermal hyperalgesia. Each time point represents the mean ±SEM (n=4-5 per group). (D, F) Representative western blots showing the level of P-p38, p38α and p38β and β-actin protein expression assessed 30 minutes after IT SP injection.
Western blot. Prior to sacrifice, rats were deeply anesthetized and after decapitation the spinal cords were ejected from the vertebral column by a saline-filled syringe. The lumbar part of the spinal cord was immediately homogenized in extraction buffer (50 mM Tris buffer, pH 8.0, containing 0.5% Triton X-100, 150 mM NaCl, 1 mM EDTA, phosphatase and protease inhibitors) by sonication. […] After washing, the antibody-protein complexes were probed with appropriate secondary antibodies labeled with horseradish peroxidase for 1 hr at room temperature and detected with chemiluminescent reagents (SuperSignal, Pierce, Rockford, Ill.). […] Intensity of immunoreactive bands was quantified using ImageQuant software (Molecular Dynamics, Sunnyvale, Calif.). p38 immuno-positive bands were normalized relative to β-actin.
In general terms: Immunoblotting shows a protein as a band on a membrane.

The subject of assay [3] is rats, IT SP (spinal NK-1 receptors). In words: IT substance P-evoked thermal hyperalgesia (paw withdrawal latency, Hargreaves device). The following applies: IT SP 30 nmol at T=0, versus IT saline. How it is done: as §1
Nociceptive models. To directly induce spinal sensitization, rats received intrathecal injections of sP (30 nmol) which activates spinal NK-1 receptors and produces thermal hyperalgesia. Hua et al., Neuroscience 89: 525-534, 1999a; Piercey et al., Science 214: 1361-1363, 1981; Yashpal and Henry, Can J Physiol Pharmacol 61: 303-307, 1983. Thermally evoked paw withdrawal responses were assessed using a Hargreaves type testing device. Dirig et al., J Neurosci Methods 76: 183-191, 1997. Briefly, rats were placed on a glass surface maintained at 30° C. The thermal nociceptive stimulus originates from a projection bulb below the glass surface, and the stimulus is delivered separately to one hind paw at a time. The animals were allowed to acclimatize on the glass surface and basal paw withdrawal latencies (PWL) were then assessed for left and right paws at time (T)=−40, =30 and −20 min and expressed as the mean of the six measurements. At T=−10 min the animals received intrathecal vehicle or drug and at T=0, sP was injected. Withdrawal latencies were then assessed at T=15, 30, 45 and 60 min. Paw withdrawal latency for each group was expressed as the mean at each time point.

Results on two molecules are retold here after patent publication US20080206253A1, “Method For Preventing or Treating Pain in a Mammal” (priority 2005, published 2008).

“Also recorded” adds a separate entry of the source. No end group written: not given here.

For the molecule `C[S+]([O-])c1ccc(-c2nc(-c3ccncc3)c(-c3ccc(F)cc3)[nH]2)cc1` (stereo not drawn) [SB203580, reference compound], the “SP-evoked release of PGE2, AUC between groups” value with PGE2 (30 μg IT prior to SP, AUC 60 minutes after IT SP, unpaired t-test P<0.05) was “significantly lower”. For the same molecule, the “IT SP-evoked PGE2 release” value in the assay on PGE2 (pretreatment 30 μg IT, 15 min prior to IT SP 30 nmol) is on record as “prevented IT SP-evoked PGE2 release”. Besides, the “flinching during phase II” value in assay [1] is recorded as “dose-dependent attenuation; also recorded: statistically different”.

Regarding “SP: substance P (Sigma), injected IT to activate spinal NK-1 receptors and produce thermal hyperalgesia (RPKPQQFFGLM-NH2; UniProt P20366 58-68, looked up) [reference compound]”, the “phosphorylation of spinal p38, peak effect, increase as compared to saline group” value in assay [2] is 224±41%. Also, the “increase in PGE2 level in intrathecal CSF” value in the assay on PGE2 (IT SP 30 nmol, spinal dialysis, conscious rats) is 6-8 fold. The “paw withdrawal latency (PWL) after IT injection” value in assay [3] is “transient decrease in PWL”.
